Source: patent US20180258100A1, “RAPAMYCIN ANALOGS SHOWING IMPROVED mTORC1 SPECIFICITY” (priority 2015, published 2018)

How the values were obtained:
mTORC2 = target: T1, mTORC2 (Homo sapiens, UniProt P42345+P62942); assay: Western blot of PC3 cells, 24 h at 100 nM, comparison with commercial rapalogs, mTORC2 (p-Akt); type: cell-based; conditions: PC-3, read-out: mTORC2 (p-Akt) activity, % of control
T1 construct: endogenous in cells; host or cells: PC3 cells
Method: (§1) PC3 cells were maintained in F12K media supplemented with 10% FBS, 1% Penicillin/Streptomycin, and 2 mM L-Glutamine and cultured at 37° C. Cells were treated with 100 nM Rapamycin, Temsirolimus, Everolimus, and rapalog compounds 390, 394, 824, 384 or 405 for 24 h and harvested in RIPA buffer (300 mM NaCl, 1.0% NP-40, 0.5% sodium deoxycholate, 0.1% SDS, 50 mM Tris pH 8.0. Protein concentrations were determined using the DC protein assay (Biorad).
(§2) Equal amounts of protein were resolved by SDS-PAGE and transferred to nitrocellulose membrane using the Invitrogen Nu-Page system. The membranes were blocked for 1 h in 5% milk and incubated overnight in the appropriate antibodies. The following day, blots were washed 3 times in TBST, incubated for 2 h with secondary antibodies (donkey anti rabbit hrp conjugated), and finally washed an additional 3 times in TBST. ECL Prime (Amersham) was used to detect the proteins of interest and blots were quantified using ImageJ software.

mTORC1 = target: T2, mTORC1 (Homo sapiens, UniProt P42345+P62942); assay: Western blot of PC3 cells, 24 h at 100 nM, comparison with commercial rapalogs, mTORC1 (p-S6K); type: cell-based
T2 construct: endogenous in cells; host or cells: PC3 cells
Method: as §1, §2

[1] = Fat mass by EchoMRI body composition after four weeks; type: in vivo, male C57BL/6J mice; conditions: 4 weeks of every other day administration; rapamycin 8 mg/kg, compound 390 12 mg/kg; versus vehicle
Method: Fortyfive C57BL/6J male mice, housed three per cage, were weighed and their body composition was measured with an EchoMRI 3-in-1 system. Cages were sorted into three groups—vehicle, rapamycin, and compound 390—such that the average weight was similar for all three groups. Mice received every-other-day injections of either vehicle, rapamycin (8 mg/kg), or compound 390 (12 mg/kg). A glucose tolerance test was performed after 2 weeks (morning after the 8th injection). A pyruvate tolerance test was performed after 3 weeks. Glucose stimulated insulin secretion assay was performed after 4 weeks and additional blood was collected for whole blood analysis. Body composition was measured on day −2 and day 31.

[2] = Glucose tolerance test after 2 weeks of chronic dosing; type: in vivo, male C57BL/6J mice; conditions: rapamycin 8 mg/kg, compound 390 12 mg/kg every other day, male mice
Method: Fortyfive C57BL/6J male mice, housed three per cage, were weighed and their body composition was measured with an EchoMRI 3-in-1 system. […] Mice received every-other-day injections of either vehicle, rapamycin (8 mg/kg), or compound 390 (12 mg/kg). A glucose tolerance test was performed after 2 weeks (morning after the 8th injection). A pyruvate tolerance test was performed after 3 weeks. Glucose stimulated insulin secretion assay was performed after 4 weeks and additional blood was collected for whole blood analysis. Body composition was measured on day −2 and day 31.
Mice were fasted overnight for 16 hours and then injected with either glucose (1 g/kg) or pyruvate (2 g/kg) intraperitoneally. For glucose and pyruvate tolerance tests, small blood samples were taken from a tail vein nick at time intervals and read using a Bayer Contour blood glucose meter and test strips. For glucose-stimulated insulin secretion, blood glucose levels were read using a glucometer and then 50 μL of blood was collected into a heparinized tube immediately prior to and 15 minutes following glucose administration. Insulin levels were determined using a Mouse Insulin ELISA kit (Crystal Chem).

[3] = Steady state glucose levels after one week of i.p. dosing; type: in vivo, female C57BL/6J mice; conditions: 8 mg/kg i.p. every other day
Method: (§3) 10-week old female C57BL/6J mice were given intraperitoneal injections of 8 mg/kg rapamycin (LC laboratories), 12 mg/kg compound 390 or vehicle every other day for three weeks (N=5 mice/group), such as to mimic chronic exposure conditions. 24 hours after the last injection, tissues were dissected from the mice and immediately frozen in liquid nitrogen. The tissues were homogenized using the Omni TH homogenizer (Omni International) on ice in RIPA buffer and then centrifuged at 13,000 rpm for 15 minutes at 4° C. The supernatants were collected and protein concentration was determined using the DC protein assay (Biorad).
Steady state glucose levels were determined after one week from study initiation using a Bayer Contour blood glucose meter and test strips from small blood samples, which were withdrawn from a tail vein nick. At the end of the second week, the animals were challenged by administration of 2 mg/kg glucose; glucose levels were determined for two hours following the challenge at 30 min intervals.

[4] = Glucose challenge response; type: in vivo, female C57BL/6J mice; conditions: 2 mg/kg glucose after 1 week; rapamycin 8 mg/kg, compound 390 12 mg/kg i.p. every other day
Method: as §3
Steady state glucose levels were determined after one week from study initiation using a Bayer Contour blood glucose meter and test strips from small blood samples, which were withdrawn from a tail vein nick. […]

[5] = Plasma lipid levels after chronic i.p. dosing; type: in vivo, female C57BL/6J mice; conditions: rapamycin 8 mg/kg, compound 390 12 mg/kg i.p. every other day; versus vehicle
Method: as §3
Plasma lipid levels were determined at the end of the three-week exposure. Free fatty acids in the serum were measured by the HR Series NEFA-HR(2) (Wako Diagnostics, Richmond, Va.). Triglycerides and cholesterol in serum were measured by Triglycerides Liquicolor Test and Cholesterol Liquicolor Test (Stanbio laboratory, Boerne, Tex.), respectively.

[6] = Insulin challenge response; type: in vivo, female C57BL/6J mice; conditions: 0.75 IU/kg insulin after 2 weeks; rapamycin 8 mg/kg, compound 390 12 mg/kg i.p. every other day
Method: FIG. 10. Response to insulin challenge following administration of 0.75 IU/kg insulin at t=2 weeks following the initiation of the intraperitoneal administrations of 8 mg/kg rapamycin, 12 mg/kg compound 390 or vehicle control every other day in female mice (N=5).
as §3

T1 sequence (P62942 2-108 limits assumed, other chains not shown): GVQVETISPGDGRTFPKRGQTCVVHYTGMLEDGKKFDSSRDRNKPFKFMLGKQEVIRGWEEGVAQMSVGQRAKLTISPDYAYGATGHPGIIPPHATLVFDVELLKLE

CO[C@H]1C[C@@H]2CC[C@@H](C)[C@@](O)(O2)C(=O)C(=O)N2CCCC[C@H]2C(=O)O[C@H]([C@H](C)C[C@@H]2CC[C@@H](OCCO)[C@H](OC)C2)CC(=O)[C@H](C)/C=C(\C)[C@@H](O)[C@@H](OC)C(=O)[C@H](C)C[C@H](C)/C=C/C=C/C=C/1C [Everolimus]
remaining activity at 0.1 µM (mTORC2): ~5% | mTORC1 (p-S6K) inhibition (mTORC1): performed identically to rapamycin

CO[C@H]1C[C@@H]2CC[C@@H](C)[C@@](O)(O2)C(=O)C(=O)N2CCCC[C@H]2C(=O)O[C@H]([C@H](C)C[C@@H]2CC[C@@H](O)[C@H](OC)C2)CC(=O)[C@H](C)/C=C(\C)[C@@H](O)[C@@H](OC)C(=O)[C@H](C)C[C@H](C)/C=C/C=C/C=C/1C [Rapamycin]
remaining activity at 0.1 µM (mTORC2): ~5% | fat mass (adiposity) [1]: statistically significant increase of fat mass | glucose tolerance test ([2]; after 2 weeks): impaired glucose and pyruvate tolerance tests | fasting hyperglycemia ([2]; chronic dosing): induced | glucose steady state level [3]: ~75 mg/dL | increase of glucose steady state level from baseline [3]: approx. 55% | increase of glucose steady state level versus vehicle-receiving animals [3]: 3 fold | glucose response after glucose challenge (glucose intolerance) [4]: deviates significantly from the response observed with the control animals | plasma free fatty acids [5]: substantial and statistically significant increase | glucose response after insulin challenge (insulin resistance) [6]: deviates significantly from the response observed with the control animals

CO[C@H]1C[C@@H]2CC[C@@H](C)[C@@](O)(O2)C(=O)C(=O)N2CCCC[C@H]2C(=O)O[C@H]([C@H](C)C[C@@H]2CC[C@@H](OC(=O)C(C)(CO)CO)[C@H](OC)C2)CC(=O)[C@H](C)/C=C(\C)[C@@H](O)[C@@H](OC)C(=O)[C@H](C)C[C@H](C)/C=C/C=C/C=C/1C [Temsirolimus]
remaining activity at 0.1 µM (mTORC2): ~5% | mTORC1 (p-S6K) inhibition (mTORC1): performed identically to rapamycin
